# Assay results: patent EP0973746B1, “SUBSTITUTED 3-CYANO QUINOLINES” (Wyeth Holdings Corporation, priority 1997, dated 1998)
# pIC50: −log10 of the molar value. Several values for one entry are separate records, joined by “and”; a condition that tells them apart may be missing. Identical values can stand only once. Like-named read-outs stand apart in the source and are kept apart here.
# Key:
# [1] = molecular target: recombinant human MEK 1 (MAPKK) and recombinant human ERK2 (MAPK); test: Mitogen Activated Protein Kinase (MAPK) assay, two component coupled MEK 1 / ERK2; assay type: biochemical; details: separate entries for the same compound = evaluated more than one time;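 further: MEK 1-activated ERK2 phosphorylates MBP or Myc peptide with 33P-ATP, filter capture and scintillation counting, inhibitor preincubated with ERK2 30 min at 0 °C, inhibition relative to uninhibited control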
# [2] = tested on: DU145; test: Inhibition of cancer cell growth as measured by cell number, DU145; assay type: cell-based; details: Homo sapiens, DU-145, 48 h, read-out: IC50 DU145
# [3] = tested on: CCRF-CFM; test: Inhibition of cancer cell growth as measured by cell number, CCRF-CFM; assay type: cell-based; details: Homo sapiens, 48 h, read-out: IC50 CCRF-CFM
# [4] = tested on: HCT15; test: Inhibition of cancer cell growth as measured by cell number, HCT15; assay type: cell-based; details: Homo sapiens, HCT-15, 48 h, read-out: IC50 HCT15
# [5] = tested on: SKBR3; test: Inhibition of cancer cell growth as measured by cell number, SKBR3; assay type: cell-based, human; details: Homo sapiens, SK-BR-3, 48 h, read-out: IC50 SKBR3, cell number, Sulforhodamine B, 48 hours exposure;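 further: SK-BR-3 cells were selected as a line overexpressing HER2/neu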
# Excerpt: (§1) The cell lines were chosen since they overexpressed epidermal growth factor receptor (EGFR) (i.e. A431) or HER2/neu (SKBR3), or had little to no expression of the these receptors (SW620, LOX, MCF7).
# [6] = tested on: A2780DDP; test: Inhibition of cancer cell growth as measured by cell number, A2780DDP; assay type: cell-based; details: Homo sapiens, 48 h, read-out: IC50 A2780DDP
# [7] = tested on: A27805; test: Inhibition of cancer cell growth as measured by cell number, A27805; assay type: cell-based; details: Homo sapiens, 48 h, read-out: IC50 A27805
# [8] = tested on: MCF7; test: Inhibition of cancer cell growth as measured by cell number, MCF7; assay type: cell-based, human; details: Homo sapiens, MCF7, 48 h, read-out: IC50 MCF7, cell number, Sulforhodamine B, 48 hours exposure;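 further: MCF7 was included as a line with little or no EGFR or HER2/neu expression, in contrast to the receptor-overexpressing lines of the panel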
# Excerpt: as §1
# [9] = tested on: HL60; test: Inhibition of cancer cell growth as measured by cell number, HL60; assay type: cell-based; details: Homo sapiens, HL-60, 48 h, read-out: IC50 HL60
# [10] = tested on: COLO205; test: Inhibition of cancer cell growth as measured by cell number, COLO205; assay type: cell-based; details: Homo sapiens, COLO 205, 48 h, read-out: IC50 COLO205
# [11] = tested on: LX1; test: Inhibition of cancer cell growth as measured by cell number, LX1; assay type: cell-based; details: Homo sapiens, LX-1, 48 h, read-out: IC50 LX1
# [12] = tested on: LOX; test: Inhibition of cancer cell growth as measured by cell number, LOX; assay type: cell-based, human; details: Homo sapiens, LOX, 48 h, read-out: IC50 LOX, cell number, Sulforhodamine B, 48 hours exposure;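 further: LOX cells served as a line with low or absent EGFR and HER2/neu expression, in contrast to receptor-overexpressing lines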
# Excerpt: as §1
# [13] = tested on: B7474; test: Inhibition of cancer cell growth as measured by cell number, B7474; assay type: cell-based; details: Homo sapiens, 48 h, read-out: IC50 B7474
# [14] = tested on: T47D; test: Inhibition of cancer cell growth as measured by cell number, T47D; assay type: cell-based; details: Homo sapiens, 48 h, read-out: IC50 T47D
# [15] = molecular target: epidermal growth factor receptor kinase (Homo sapiens, UniProt P00533); test: biochemical
# epidermal growth factor receptor kinase, sequence (P00533 25-1210): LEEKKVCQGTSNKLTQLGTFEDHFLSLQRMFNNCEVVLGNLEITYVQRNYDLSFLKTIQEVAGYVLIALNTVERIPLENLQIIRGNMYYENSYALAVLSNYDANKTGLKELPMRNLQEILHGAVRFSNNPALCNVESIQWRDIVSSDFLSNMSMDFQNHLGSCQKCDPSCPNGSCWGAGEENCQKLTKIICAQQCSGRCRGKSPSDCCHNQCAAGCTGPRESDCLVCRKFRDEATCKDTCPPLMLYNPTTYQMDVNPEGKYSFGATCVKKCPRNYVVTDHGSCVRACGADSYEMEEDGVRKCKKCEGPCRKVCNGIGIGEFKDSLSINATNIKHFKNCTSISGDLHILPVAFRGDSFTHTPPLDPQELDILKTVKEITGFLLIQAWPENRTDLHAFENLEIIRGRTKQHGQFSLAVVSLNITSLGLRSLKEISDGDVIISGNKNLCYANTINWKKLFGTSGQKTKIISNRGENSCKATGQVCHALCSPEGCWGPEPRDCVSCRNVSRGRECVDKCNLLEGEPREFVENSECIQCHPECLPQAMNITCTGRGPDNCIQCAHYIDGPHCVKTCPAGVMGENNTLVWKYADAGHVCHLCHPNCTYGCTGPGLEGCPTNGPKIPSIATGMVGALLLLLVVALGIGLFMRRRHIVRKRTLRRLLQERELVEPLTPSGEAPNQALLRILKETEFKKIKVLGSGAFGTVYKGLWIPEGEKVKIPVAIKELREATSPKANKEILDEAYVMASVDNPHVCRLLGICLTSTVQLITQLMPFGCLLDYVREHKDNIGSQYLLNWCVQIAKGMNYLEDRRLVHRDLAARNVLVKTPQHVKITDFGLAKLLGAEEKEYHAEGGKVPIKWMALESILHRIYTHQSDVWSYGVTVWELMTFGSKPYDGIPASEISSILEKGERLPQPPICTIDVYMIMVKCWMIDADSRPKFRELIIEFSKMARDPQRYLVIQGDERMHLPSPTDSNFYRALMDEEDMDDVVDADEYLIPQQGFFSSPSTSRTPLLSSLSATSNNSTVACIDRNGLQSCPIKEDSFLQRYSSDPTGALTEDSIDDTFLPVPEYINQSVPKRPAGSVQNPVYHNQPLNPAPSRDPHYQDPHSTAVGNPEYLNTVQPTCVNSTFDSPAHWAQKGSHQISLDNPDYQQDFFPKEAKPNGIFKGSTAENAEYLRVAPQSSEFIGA
# [16] = tested on: HTB161; test: Inhibition of cancer cell growth as measured by cell number, HTB161; assay type: cell-based; details: Homo sapiens, 48 h, read-out: IC50 HTB161
# [17] = tested on: LS174T; test: Inhibition of cancer cell growth as measured by cell number, LS174T; assay type: cell-based; details: Homo sapiens, 48 h, read-out: IC50 LS174T
# [18] = tested on: A431; test: Inhibition of cell growth by incorporation of [3H]-thymidine, A431; assay type: cell-based, human; details: Homo sapiens, A-431, read-out: IC50 A431
# [19] = tested on: SW620; test: Inhibition of cancer cell growth as measured by cell number, SW620; assay type: cell-based, human; details: Homo sapiens, SW-620, 48 h, read-out: IC50 SW620, cell number, Sulforhodamine B, 48 hours exposure;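 further: SW620 was included as a cell line with little or no EGFR or HER2/neu expression, in contrast to receptor-overexpressing lines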
# Excerpt: as §1
# [20] = tested on: A549; test: Inhibition of cancer cell growth as measured by cell number, A549; assay type: cell-based; details: Homo sapiens, A549, 48 h, read-out: IC50 A549
# [21] = tested on: human epidermoid tumors (A431); test: In vivo inhibition of the growth of human epidermoid tumors (A431); details: for S/T = No. Survivors/No. Treated: Day +28 post tumor staging; for tumor growth was inhibited: 100 mg/kg administered i.p. during days 1-10
# Summary of the method: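 Female BALB/c nu/nu mice from Charles River were injected subcutaneously with 5 X 10^6 human epidermoid (A431) tumor cells. Once tumors weighed 100 to 150 mg, animals were randomized into treatment groups on day zero, and untreated controls were included. Tumor mass, calculated as (length X width^2)/2, was measured every 7 days for 28 days after staging. Relative growth was mean mass on days 7, 14, 21 and 28 divided by the day-zero mean.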
# [22] = tested on: A431; test: Inhibition of cancer cell growth as measured by cell number, A431; assay type: cell-based, human; details: Homo sapiens, A-431, 48 h, read-out: IC50 A431, cell number, Sulforhodamine B, 48 hours exposure;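 further: human A431 line, picked because it overexpresses epidermal growth factor receptor (EGFR)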
# Excerpt: as §1
# [23] = tested on: NEC; test: Inhibition of cancer cell growth as measured by cell number, NEC; assay type: cell-based; details: Homo sapiens, 48 h, read-out: IC50 NEC
# [24] = tested on: CCL228; test: Inhibition of cancer cell growth as measured by cell number, CCL228; assay type: cell-based; details: Homo sapiens, 48 h, read-out: IC50 CCL228
# [25] = tested on: CACO2; test: Inhibition of cancer cell growth as measured by cell number, CACO2; assay type: cell-based; details: Homo sapiens, Caco-2, 48 h, read-out: IC50 CACO2
# [26] = tested on: MIP; test: Inhibition of cancer cell growth as measured by cell number, MIP; assay type: cell-based; details: Homo sapiens; cell number, Sulforhodamine B, 48 hours exposure; Table 4; read-out: IC50 MIP
# [27] = tested on: CX1; test: Inhibition of cancer cell growth as measured by cell number, CX1; assay type: cell-based; details: Homo sapiens, CX-1, 48 h, read-out: IC50 CX1
# [28] = tested on: SW948; test: Inhibition of cancer cell growth as measured by cell number, SW948; assay type: cell-based; details: Homo sapiens, SW948, 48 h, read-out: IC50 SW948
# [29] = tested on: NHEK; test: Inhibition of cell growth by incorporation of [3H]-thymidine, NHEK; assay type: cell-based, human; details: Homo sapiens, read-out: IC50 NHEK
# Description: Representative compounds of this invention were evaluated for their ability to inhibit the growth of the cell lines described below in vitro. The inhibition is quantitated by measuring the decrease in the incorporation of radio-labeled thymidine when the cells are grown in the presence of the inhibitor. […] Cells were routinely grown in a humidified incubator in 5% CO2 in air.
# Cells were seeded at 10,000 cells/well in 96 well plates in complete media and allowed to grow to log phase. At this stage the complete media was replaced with media containing 0.5% FBS (for cells growing in 10% FBS) or media lacking epidermal growth factor (EGF) (for cells growing in serum free media). […] Media with test compound was then removed and complete media was added back. The cells were allowed to grow for 18 hours. This is followed by incubation in [^3H]thymidine (1mCi/ml in serum/EGF media) for 4 hours. Cells were lysed in 0.5 M NaOH for at least 30 min at 37°C and radioactivity analyzed.
# The % inhibition of the compound evaluated was determined for at least three different concentrations and the IC50 value evaluated from the dose response curve. […] CPM(control) is in units of counts per minute and is a number expressing the amount of [^3H]thymidine incorporated onto the DNA when cells are grown in the absence of test compound as measured by liquid scintillation counting.
# [30] = 10 mg/kg/dose IP on days 1 through 10
# [31] = 50 mg/kg/dose IP on days 1 through 10
# [32] = 100 mg/kg/dose IP on days 1 through 10
compound,measurement,setting,value
"CCOc1cc2ncc(C#N)c(Nc3cccc(Br)c3)c2cc1OCC [Example 47, 4-[(3-Bromophenyl)amino]6,7-diethoxy-3-quinolinecarbonitrile]",pIC50,[1],5.10 and 5.30
same,IC50,[2],0.068 µg/mL
same,IC50,[3],0.068 µg/mL
same,IC50,[4],0.0395 µg/mL
same,IC50,[5]; Table 7,0.0467 µg/mL
same,IC50,[5]; Table 8,< 0.01 µg/mL
same,IC50,[6],0.0645 µg/mL
same,IC50,[7],0.053 µg/mL
same,IC50,[8]; Table 5,0.072 µg/mL
same,IC50,[8]; Table 8,0.02 µg/mL
same,IC50,[9],0.0625 µg/mL
same,IC50,[10],0.0757 µg/mL
same,IC50,[11],0.076 µg/mL
same,IC50,[12]; Table 6,0.0605 µg/mL
same,IC50,[12]; Table 8,0.03 µg/mL
same,IC50,[13],0.233 µg/mL
same,IC50,[14],0.0467 µg/mL
same,pIC50,[15],6.89
same,IC50,[16],3.95 ng/mL
same,IC50,[17],0.0468 µg/mL
same,pIC50,[18],5.82
same,IC50,[19]; Table 4,0.0672 µg/mL
same,IC50,[19]; Table 8,< 0.01 µg/mL
same,IC50,[20],0.0679 µg/mL
same,%T/C Day 7,[21]; [30],69%
same,%T/C Day 14,[21]; [30],74%
same,%T/C Day 21,[21]; [30],116%
same,%T/C Day 28,[21]; [30],136%
same,S/T = No. Survivors/No. Treated,[21]; [30],5/5
same,%T/C Day 7,[21]; [31],44 (d) %
same,%T/C Day 14,[21]; [31],55 (d) %
same,%T/C Day 21,[21]; [31],87%
same,%T/C Day 28,[21]; [31],102%
same,S/T = No. Survivors/No. Treated,[21]; [31],5/5
same,tumor growth was inhibited,[21]; day 7,66%
same,tumor growth was inhibited,[21]; day 14,63%
same,tumor growth was inhibited,[21]; day 28,57%
same,%T/C Day 7,[21]; [32],34(d) %
same,%T/C Day 14,[21]; [32],37(d) %
same,%T/C Day 21,[21]; [32],51%
same,%T/C Day 28,[21]; [32],43%
same,S/T = No. Survivors/No. Treated,[21]; [32],5/5
same,IC50,[22]; Table 6,0.0446 µg/mL
same,IC50,[22]; Table 8,< 0.01 µg/mL
same,IC50,[23],0.0671 µg/mL
same,IC50,[24],0.0715 µg/mL
same,IC50,[25],0.0701 µg/mL
same,IC50,[26],0.0693 µg/mL
same,IC50,[27],0.0618 µg/mL
same,IC50,[28],0.0683 µg/mL
same,pIC50,[29],7.52
